This note sets out measurements from ChEMBL document CHEMBL3045606, “Virtual screening and biochemical evaluation of the inhibitors of dual-specificity phosphatase 26” (Med Chem Res, 2013).

SMILES strings stand for the structures.

For assay [1], the target named is T1, Dual specificity protein phosphatase 26 (Homo sapiens, UniProt Q9BV47).
T1 sequence (Q9BV47 whole entry): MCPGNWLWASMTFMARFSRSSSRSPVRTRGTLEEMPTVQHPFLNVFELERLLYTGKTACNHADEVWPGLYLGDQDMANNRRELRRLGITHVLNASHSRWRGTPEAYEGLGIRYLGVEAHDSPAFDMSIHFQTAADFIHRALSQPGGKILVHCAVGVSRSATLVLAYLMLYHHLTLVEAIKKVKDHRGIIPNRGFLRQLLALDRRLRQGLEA
Put plainly: inhibition of Homo sapiens (human) recombinant DUSP26 catalytic domain (61 to 211 amino acid residues) overexpressed in Escherichia coli BL21 (DE3) assessed as hydrolysis of 3-ortho-methylfluorescein phosphate after 30 min by spectrofluorometric analysis.

The target in assay [2] is T1, Dual specificity protein phosphatase 26. Put plainly: Inhibition of DUSP26 (unknown origin)-mediated p38 dephosphorylation.

As a reminder, the IC50 is the midpoint of a concentration-inhibition curve. For `O=C(O)c1cccc(N2C(=O)/C(=C\c3ccc(O)c(O)c3)SC2=S)c1`, the IC50 in assay [1] turned out to be 25.1 µM.

For the molecule `O=C1OC(c2ccc(Cl)cc2)=C/C1=C\c1ccc(-c2ccc(Cl)c(C(=O)O)c2)o1`, in assay [1], the IC50 is 8.9 µM.

Consider `Cc1ccc(C2=C/C(=C\c3ccc(-c4cccc(C(=O)O)c4)o3)C(=O)O2)cc1`, for which, in assay [1], the IC50 was over 100 µM.

Take `O=C(O)c1ccc(Cl)cc1Nc1nc2ccccc2nc1NS(=O)(=O)c1ccc(Cl)cc1`: the IC50 in assay [1] is 17 µM.

The molecule `O=S(=O)(O)c1ccc2cc(/N=N/c3cc(S(=O)(=O)O)c4cccnc4c3O)ccc2c1` displayed an IC50 in assay [2] of 16.7 µM.

Take `O=C(O)CCN1C(=O)/C(=C/c2cn(-c3ccccc3)nc2-c2cccc([N+](=O)[O-])c2)SC1=S`: the IC50 in assay [1] worked out at 22.3 µM.

Consider `CCN1C(=O)/C(=C/c2ccccc2OCc2ccccc2C#N)S/C1=N/c1ccc(C(=O)O)cc1`, for which, in assay [1], the IC50 came out at 41.7 µM.

For `CN1C(=O)/C(=C/c2ccc(OCc3cccc(F)c3)cc2)S/C1=N/c1cccc(C(=O)O)c1`, the IC50 in assay [1] worked out at 12.5 µM.

For `O=C(CN1C(=O)/C(=C\C=C\c2ccccc2)SC1=S)Nc1ccc(O)cc1C(=O)O`, the 50% inhibitory concentration (IC50) in assay [1] was determined as 26.3 µM.

For `O=C1OC(c2ccc(Cl)cc2)=C/C1=C\c1ccc(-c2cccc(C(=O)O)c2)o1`, the IC50 in assay [1] is over 100 µM.

Turning to `CN1C(=O)/C(=C/c2ccc(OCc3cccc([N+](=O)[O-])c3)cc2)S/C1=N/c1cccc(C(=O)O)c1`, the IC50 in assay [1] was 19.8 µM.

Regarding `CCc1cc(CC)cc(OCCOc2ccccc2/C=C2/C(=O)NN(c3ccccc3)C2=O)c1`, in assay [1], the IC50 came out at 36.6 µM.

For the molecule `CN1C(=O)/C(=C/c2ccc(OCc3ccc(F)cc3)cc2)S/C1=N/c1cccc(C(=O)O)c1`, the IC50 in assay [1] amounted to 26.9 µM.

For `C=CCOc1ccc(/C=C2\SC(=S)N(c3cccc(C(=O)O)c3)C2=O)cc1`, the IC50 in assay [1] turned out to be 30.2 µM.
